Experimental data taken from BindingDB's records for doi:10.1021/bi990204w (National Institute of Diabetes and Digestive and Kidney …, 1999).
Several values for one entry are separate records, joined by “and”; a condition that tells them apart may be missing. Equal entries are not always repeated. Where a SMILES comes first, the peptide text is derived from it. Bridges are numbered along the chain shown (N, C = ends). [ ]: non-standard residue; d: D form. The star is where a group is joined. X1 = CC(C)C[C@@H](CN[C@@H](CC(C)C)C(N)=O)N*; 2Nal = N[C@@H](Cc1ccc2ccccc2c1)C(=O)O; d2Nal = N[C@H](Cc1ccc2ccccc2c1)C(=O)O; pGlu = O=C1CC[C@@H](C(=O)O)N1; Nle = CCCC[C@H](N)C(=O)O; βAla = NCCC(=O)O

Columns and labels:
Neuromedin-B receptor = target: T1, Neuromedin-B receptor (Rattus norvegicus, UniProt P24053)
T1 sequence (P24053 whole entry): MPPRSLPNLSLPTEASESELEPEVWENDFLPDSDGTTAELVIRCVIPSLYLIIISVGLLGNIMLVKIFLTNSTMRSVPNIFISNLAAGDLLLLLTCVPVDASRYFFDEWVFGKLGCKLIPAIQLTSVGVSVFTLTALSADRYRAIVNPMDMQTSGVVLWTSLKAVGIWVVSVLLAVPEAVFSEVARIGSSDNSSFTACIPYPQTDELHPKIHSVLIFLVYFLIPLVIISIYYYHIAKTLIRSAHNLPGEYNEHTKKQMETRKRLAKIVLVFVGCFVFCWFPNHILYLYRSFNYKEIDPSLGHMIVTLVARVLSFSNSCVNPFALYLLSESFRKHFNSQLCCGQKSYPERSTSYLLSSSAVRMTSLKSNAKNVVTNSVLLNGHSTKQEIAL

[1] = target: Gastrin-releasing peptide receptor (Rattus norvegicus, UniProt P52500)
[2] = target: T2, Bombesin receptor subtype-3 (Homo sapiens, UniProt P32247)
T2 sequence (P32247 whole entry): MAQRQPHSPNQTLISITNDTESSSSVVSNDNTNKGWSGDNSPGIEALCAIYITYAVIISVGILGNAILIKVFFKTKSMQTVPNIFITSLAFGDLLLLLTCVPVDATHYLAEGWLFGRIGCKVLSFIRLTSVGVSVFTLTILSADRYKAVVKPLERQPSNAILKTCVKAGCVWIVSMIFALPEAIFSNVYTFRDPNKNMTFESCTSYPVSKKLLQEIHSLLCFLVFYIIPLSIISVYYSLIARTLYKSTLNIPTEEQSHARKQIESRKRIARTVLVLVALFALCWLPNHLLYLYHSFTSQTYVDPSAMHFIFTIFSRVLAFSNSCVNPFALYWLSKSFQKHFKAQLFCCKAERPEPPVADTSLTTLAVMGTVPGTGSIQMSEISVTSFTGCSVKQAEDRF

[3] = target: Gastrin-releasing peptide receptor (Mus musculus, UniProt P21729)
Sequence of Gastrin-releasing peptide receptor (Mus musculus, UniProt P21729) (P21729 whole entry): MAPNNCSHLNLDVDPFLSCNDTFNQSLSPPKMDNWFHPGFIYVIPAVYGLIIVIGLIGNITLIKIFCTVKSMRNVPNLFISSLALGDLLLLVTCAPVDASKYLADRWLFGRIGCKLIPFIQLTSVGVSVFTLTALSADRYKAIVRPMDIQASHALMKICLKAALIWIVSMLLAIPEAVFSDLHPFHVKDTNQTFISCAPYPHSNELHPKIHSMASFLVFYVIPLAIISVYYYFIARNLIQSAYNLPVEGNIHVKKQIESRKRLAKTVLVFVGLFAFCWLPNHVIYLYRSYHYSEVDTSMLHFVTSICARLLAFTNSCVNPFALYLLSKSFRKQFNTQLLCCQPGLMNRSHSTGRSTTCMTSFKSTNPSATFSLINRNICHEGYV

Sequence of Gastrin-releasing peptide receptor (Rattus norvegicus, UniProt P52500) (P52500 whole entry N28S): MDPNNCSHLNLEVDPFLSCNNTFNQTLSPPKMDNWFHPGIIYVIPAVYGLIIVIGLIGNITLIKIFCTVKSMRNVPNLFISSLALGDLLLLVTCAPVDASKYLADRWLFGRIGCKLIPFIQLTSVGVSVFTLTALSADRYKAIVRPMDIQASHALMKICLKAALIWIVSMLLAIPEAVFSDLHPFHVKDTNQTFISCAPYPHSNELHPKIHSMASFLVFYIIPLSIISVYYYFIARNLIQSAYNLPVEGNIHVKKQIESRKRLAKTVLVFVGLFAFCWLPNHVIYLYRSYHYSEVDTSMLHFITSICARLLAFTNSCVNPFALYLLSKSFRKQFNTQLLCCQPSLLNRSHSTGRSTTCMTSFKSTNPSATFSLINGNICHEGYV

| Ki (Neuromedin-B receptor) | Ki [1] | Ki [2] | Ki [3] | Molecule |
| --- | --- | --- | --- | --- |
| 0.36 nM | 0.99 nM | 8.9 nM | 0.26 nM and 0.24 nM and 0.19 nM and 0.11 nM | CCCC[C@H](NC(=O)[C@H](Cc1ccccc1)NC(=O)[C@H](Cc1c[nH]cn1)NC(=O)CCNC(=O)[C@@H](NC(=O)[C@H](C)NC(=O)[C@H](Cc1c[nH]c2ccccc12)NC(=O)[C@H](CCC(N)=O)NC(=O)[C@H](N)Cc1ccccc1)C(C)C)C(N)=O [DPhe6,BetaAla11,Phe13,Nle14-Bn(6-14)] (H-[dF]QWAV[βAla]HF[Nle]-NH2) |
| 220 nM | > 10000 nM | 2800 nM | – | CC(C)[C@@H]1NC(=O)[C@H](CCCCN)NC(=O)[C@@H](Cc2c[nH]c3ccccc23)NC(=O)[C@H](Cc2ccc(O)cc2)NC(=O)[C@H](NC(=O)[C@H](N)Cc2ccc3ccccc3c2)CSSC[C@@H](C(=O)N[C@@H](Cc2ccc3ccccc3c2)C(N)=O)NC1=O [H-Nal-cyclo[DCys-Tyr-DTrp-Lys-Val-Cys]-Nal-NH2] (H-[d2Nal][dC]Y[dW]KVC[2Nal]-NH2; disulfide 2-7) |
| > 10000 nM | 420 nM | 5400 nM | – | CSCC[C@H](NC(=O)[C@H](CC(C)C)NC(=O)[C@H](CO)NC(=O)CNC(=O)[C@@H](NC(=O)[C@H](C)NC(=O)[C@H](Cc1c[nH]c2ccccc12)NC(=O)[C@H](CC(C)C)NC(=O)[C@@H]1CCC(=O)N1)C(C)C)C(N)=O [Leu8-phyllolitorin] ([pGlu]LWAVGSLM-NH2) |
| > 10000 nM | 430 nM | > 10000 nM | – | CC(C)C[C@@H](CN[C@@H](CC(C)C)C(N)=O)NC(=O)[C@H](Cc1cnc[nH]1)NC(=O)CNC(=O)[C@@H](NC(=O)[C@H](C)NC(=O)[C@H](Cc1c[nH]c2ccccc12)NC(=O)[C@H](CCC(N)=O)NC(=O)[C@H](CC(N)=O)NC(=O)CNC(=O)[C@H](CC(C)C)NC(=O)[C@H](CCCN=C(N)N)NC(=O)[C@H](CCC(N)=O)NC(=O)[C@@H]1CCC(=O)N1)C(C)C [Leu13,Psi(CH2NH),Leu14-BN] ([pGlu]QRLGNQWAVGH-X1) |
| 140 nM | 20 nM | > 10000 nM | – | CSCCC(NC(=O)C(CC(C)C)NC(=O)C(Cc1cnc[nH]1)NC(=O)CNC(=O)C(NC(=O)C(C)NC(=O)C(Cc1c[nH]c2ccccc12)NC(=O)C(Cc1cnc[nH]1)NC(=O)C(CC(N)=O)NC(=O)CN)C(C)C)C(N)=O (stereo not drawn) [NSC_5486814] |
| 47 nM | 240 nM | 2100 nM | – | CSCC[C@H](NC(=O)[C@H](Cc1ccccc1)NC(=O)[C@H](CO)NC(=O)CNC(=O)[C@@H](NC(=O)[C@H](C)NC(=O)[C@H](Cc1c[nH]c2ccccc12)NC(=O)[C@H](CC(C)C)NC(=O)[C@@H]1CCC(=O)N1)C(C)C)C(N)=O [NSC_5748287] |
| 2500 nM | > 10000 nM | 2300 nM | – | CSCC[C@H](NC(=O)[C@@H](Cc1c[nH]c2ccccc12)NC(=O)[C@@H](Cc1c[nH]c2ccccc12)NC(=O)[C@H](Cc1ccccc1)NC(=O)[C@@H](Cc1c[nH]c2ccccc12)NC(=O)[C@H](CCC(N)=O)NC(=O)[C@H](CCC(N)=O)NC(=O)[C@H]1CCCN1)C(N)=O [Substance P(4-11),[Dpro4,Dtrp7,9,10]] (H-[dP]QQ[dW]F[dW][dW]M-NH2) |
| 4100 nM | 11300 nM | > 10000 nM | – | CC(C)C[C@H](NC(=O)[C@H](CC(C)C)NC(=O)[C@@H](Cc1c[nH]c2ccccc12)NC(=O)[C@H](Cc1ccccc1)NC(=O)[C@@H](Cc1c[nH]c2ccccc12)NC(=O)[C@H](CCC(N)=O)NC(=O)[C@H](CCC(N)=O)NC(=O)[C@@H]1CCCN1C(=O)[C@H](CCCCN)NC(=O)[C@@H]1CCCN1C(=O)[C@H](N)CCCN=C(N)N)C(N)=O [Substance P,[DArg1,DTrp7,9,Leu11]] (H-[dR]PKPQQ[dW]F[dW]LL-NH2) |
| 210 nM | 3 nM | 5300 nM | – | H-EGGGPQWAVGHFM-NH2 [PG-L] |
